Literature values in patent US11938184B2, “Compositions and methods for treating Crohn's Disease and related conditions and infections” (priority 2012, dated 2024).

Tested on: Crohn's disease fistulae

**Q.** For infliximab, which response in fistulae (ACCENT 2 trial, after 14 weeks) is on record?
**A.** 60%

**Q.** And the fistulae maintaining closure (ACCENT 2 trial, at 1 year)?
**A.** 36%

**Q.** And the “healing of perianal fistulae” value (infliximab alone)?
**A.** 46-78%

**Q.** And the “healing of recto-vaginal fistulae” value (infliximab alone)?
**A.** 14-30%

**Q.** And the fistulae initially healed (initial phase II and subsequent phase III trials, 296 patients)?
**A.** 56-68%

**Q.** And the “median duration of fistula closure” value (normally requiring 3 doses of infliximab)?
**A.** approximately 3 months
